Results reported in PubChem BioAssay (NCI).
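Here, GI50 denotes the concentration required for 50% inhibition of growth. Definition used: TGI = concentration required for complete inhibition of growth.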

Experiments:
Test in all cases: DTP human tumour cell line panel, 384-well format
NCI-H226 lung = system: NCI-H226 lung
HCT-15 colon = system: HCT-15 colon
MOLT-4 leukemia = system: MOLT-4 leukemia
BT-549 breast = system: BT-549 breast
CCRF-CEM leukemia = system: CCRF-CEM leukemia
CAKI-1 renal = system: CAKI-1 renal
DU-145 prostate = system: DU-145 prostate
MALME-3M melanoma = system: MALME-3M melanoma
SK-MEL-28 melanoma = system: SK-MEL-28 melanoma
IGROV1 ovarian = system: IGROV1 ovarian
HT29 colon = system: HT29 colon
HCC-2998 colon = system: HCC-2998 colon
HS 578T breast = system: HS 578T breast

Work on `O=C(/C=C/c1cccc(S(=O)(=O)Nc2ccccc2)c1)NO` yielded a GI50 (NCI-H226 lung) of 1260 nM, a TGI (NCI-H226 lung) of 3050 nM and a GI50 (HCT-15 colon) of 579 nM. The TGI (HCT-15 colon) was 2100 nM, the GI50 (MOLT-4 leukemia) was 137 nM and the TGI (MOLT-4 leukemia) was 267 nM. The GI50 (BT-549 breast) was 925 nM, the TGI (BT-549 breast) was 2820 nM and the GI50 (CCRF-CEM leukemia) was 134 nM. The TGI (CCRF-CEM leukemia) was 263 nM, the GI50 (CAKI-1 renal) was 218 nM and the TGI (CAKI-1 renal) was 885 nM. For the same compound, the GI50 (DU-145 prostate) was 260 nM, the TGI (DU-145 prostate) was 793 nM and the GI50 (MALME-3M melanoma) was 184 nM. The TGI (MALME-3M melanoma) was 450 nM, the GI50 (SK-MEL-28 melanoma) was 565 nM and the TGI (SK-MEL-28 melanoma) was 1890 nM. The GI50 (IGROV1 ovarian) was 271 nM, the TGI (IGROV1 ovarian) was 781 nM and the GI50 (HT29 colon) was 282 nM. It also gave a TGI (HT29 colon) of 918 nM, a GI50 (HCC-2998 colon) of 490 nM and a TGI (HCC-2998 colon) of 1220 nM. The GI50 (HS 578T breast) was 474 nM and the TGI (HS 578T breast) was 1600 nM.
